The record followed here is BindingDB's records for patent US20240190890 (Bristol-Myers Squibb, 2024).

The structures appear in SMILES notation.

For this assay, the target named is MAP kinase-activated protein kinase 2 (Homo sapiens, UniProt P49137). Briefly: Not found. Here is the method:
Briefly, 10× stock solutions of MK2 (PV3317, from Life Technologies), 1.13X ATP (AS001A), and Sox conjugated peptide substrate, S/T3-Sox, (KZN1031) were prepared in 1× kinase reaction buffer consisting of 20 mM Tris, pH 7.5, 5 mM MgCl2, 1 mM EGTA, 5 mM β-glycerophosphate, 5% glycerol (10× stock, KB001A) and 0.2 mM DTT (DS001A). Enzyme solution (5 μL) was added to each of DMSO ([…]) or serially diluted test compounds prepared in DMSO in a Corning (#3574) 384-well, white, non-binding surface microtiter plate (Corning, NY). Kinase reactions were started with the addition of 45 μL of the ATP-peptide substrate S/T3-Sox mix and monitored every 71 seconds for 120 minutes at λex360/λem485 in a Synergy H4 plate reader from BioTek (Winooski, VT) at room temperature.

Chain of MAP kinase-activated protein kinase 2 (P49137 whole entry): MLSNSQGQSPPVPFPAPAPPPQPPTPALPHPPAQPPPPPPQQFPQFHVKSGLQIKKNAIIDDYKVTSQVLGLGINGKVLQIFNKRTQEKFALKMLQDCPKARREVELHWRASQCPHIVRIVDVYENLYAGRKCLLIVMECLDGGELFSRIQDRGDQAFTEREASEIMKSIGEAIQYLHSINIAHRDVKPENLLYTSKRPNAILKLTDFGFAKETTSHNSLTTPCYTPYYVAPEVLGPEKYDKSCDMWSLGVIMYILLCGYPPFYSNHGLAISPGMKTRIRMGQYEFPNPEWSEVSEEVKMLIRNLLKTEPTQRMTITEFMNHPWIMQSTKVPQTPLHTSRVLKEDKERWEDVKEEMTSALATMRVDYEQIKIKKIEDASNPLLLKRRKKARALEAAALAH

In the case of `CCOCc1cnc(Cl)nc1-c1ccc2c(ccc3sc4c(c32)NC[C@@H](C)NC4=O)n1` [US20240190890, Compound I-3], the IC50 (usually the concentration at which inhibition is half-maximal) came to 107 nM.
As to `C=Cc1nc(-c2ccc3c(ccc4sc5c(c43)NC[C@@H](C)NC5=O)n2)cc(N2CCN(C)CC2)n1` [US20240190890, Compound I-18], the IC50 came to 4 nM.
As for `C=Cc1cc(-c2ccc3c(ccc4sc5c(c43)NC[C@@H](C)NC5=O)n2)cc(C=C)n1` [US20240190890, Compound I-80], the IC50 stood at 574 nM.
For `C=C(CN1CCOCC1)c1cc(-c2ccc3c(ccc4sc5c(c43)NC[C@@H](C)NC5=O)n2)ncn1` [US20240190890, Compound I-139], the concentration for half-maximal inhibition (IC50) was 2 nM.
Consider `C=Cc1cc(-c2ccc3c(ccc4sc5c(c43)NC[C@@H](C)NC5=O)n2)cc(N2CC(C)OC(C)C2)n1` (stereo not given in full) [US20240190890, Compound I-201], for which the IC50 stood at 73 nM.
